The results in this text go back to US20260022142A1, “MACROCYCLIC IMMUNOMODULATORS” (Bristol-Myers Squibb Company, priority 2022, published 2026).

Bridge positions count the residues as written; N and C are the ends. Square brackets hold non-standard residues; d marks the D form. Peptide text beside a SMILES is read from it. * marks the point of attachment. ξ: configuration not given here. Bip = N[C@@H](Cc1ccc(-c2ccccc2)cc1)C(=O)O; Phe(3-Me) = Cc1cccc(C[C@H](N)C(=O)O)c1; hhGln = NC(=O)CCCC[C@H](N)C(=O)O; Cha = N[C@@H](CC1CCCCC1)C(=O)O; Cit = NC(=O)NCCC[C@H](N)C(=O)O; Carboxymethyl = O=C(O)C*; Orn = NCCC[C@H](N)C(=O)O; Aun = NCCCCCCCCCCC(=O)O; Dab = NCC[C@H](N)C(=O)O; ξE = NC(CCC(=O)O)C(=O)O; Dap = NC[C@H](N)C(=O)O; AEEA = NCCOCCOCC(=O)O

T1 sequence (Q15116 25-288): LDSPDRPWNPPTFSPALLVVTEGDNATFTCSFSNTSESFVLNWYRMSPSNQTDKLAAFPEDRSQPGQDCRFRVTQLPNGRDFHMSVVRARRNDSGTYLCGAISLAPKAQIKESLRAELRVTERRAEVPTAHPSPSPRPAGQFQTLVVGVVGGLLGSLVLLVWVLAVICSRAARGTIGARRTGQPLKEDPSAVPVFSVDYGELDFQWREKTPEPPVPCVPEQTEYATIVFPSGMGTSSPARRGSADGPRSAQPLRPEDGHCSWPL

This assay has as its target T1, PD-1/PD-L1 interaction (PE-labeled human PD-L1-Ig binding to Jurkat cell line over-expressing human PD-1) (Homo sapiens, UniProt Q15116).
T1 construct: expressed in transfected cells; host or cells: Jurkat
Kind of assay: Jurkat-PD-1 Cell Binding High-Content Screening Assay (CBA). It counts as cell-based. The conditions noted are these: Jurkat cell line over-expressing human PD-1; PE-labeled PD-L1-Ig 20 nM final; read-out: Jurkat hPD1-PDL1 IC50. The gist of the method:
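Jurkat-hPD-1 cells, DMEM/10% FCS; cpd 2 h 37° C; PE-PD-L1-Ig 20 nM final, 1 h; 4% PFA fix + Hoechst 33342, 3× dPBS wash; high-content imaging read-out.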
Usually IC50 stands for the concentration that gives 50% inhibition. As to `CC(C)C[C@H]1NC(=O)[C@H](CCCN)NC(=O)[C@H](C(C)C)NC(=O)[C@H](Cc2ccc(-c3ccccc3)cc2)NC(=O)[C@H](C(C)C)NC(=O)[C@H](Cc2c[nH]c3ccccc23)NC(=O)[C@H](CC(=O)O)NC(=O)[C@H](Cc2ccc(OCC(=O)O)cc2)NC(=O)[C@H](CN)NC(=O)CSC[C@@H](C(=O)NCCCCCCCCCCC(=O)O)NC(=O)[C@H](CCCCN)NC(=O)[C@H](C(C)C)NC(=O)[C@H](CC2CCCCC2)NC(=O)[C@H](CCN)NC1=O` [Compound 2603] ({CH2CO}-[Dap]Y(Carboxymethyl)DWV[Bip]V[Orn][dL][Dab][Cha]VKC[Aun]-OH; thioether N-14), the half-maximal inhibitory concentration (IC50) was determined as 7.1 nM.
Take `Cc1cccc(C[C@@H]2NC(=O)[C@H](CC(=O)O)NC(=O)[C@H](Cc3ccc(OCC(=O)O)cc3)NC(=O)[C@H](CN)NC(=O)CSC[C@@H](C(=O)NCCCCCCCCCCC(=O)O)NC(=O)[C@H](CN)NC(=O)[C@H](C(C)C)NC(=O)[C@H](CC3CCCCC3)NC(=O)[C@H](CCN)NC(=O)[C@@H](CC(C)C)NC(=O)[C@H](CCCN)NC(=O)[C@H](C(C)C)NC(=O)[C@H](Cc3ccc(-c4ccccc4)cc3)NC(=O)[C@H](C(C)C)NC2=O)c1` [Compound 2604] ({CH2CO}-[Dap]Y(Carboxymethyl)D[Phe(3-Me)]V[Bip]V[Orn][dL][Dab][Cha]V[Dap]C[Aun]-OH; thioether N-14): the IC50 worked out at 13.2 nM.
The same measure for `Cc1cccc(C[C@@H]2NC(=O)[C@H](CC(=O)O)NC(=O)[C@H](Cc3ccc(OCC(=O)O)cc3)NC(=O)[C@H](CN)NC(=O)CSC[C@@H](C(=O)NCCCCCCCCCCC(=O)O)NC(=O)[C@H](CCCN)NC(=O)[C@H](C(C)C)NC(=O)[C@H](CC3CCCCC3)NC(=O)[C@H](CCN)NC(=O)[C@@H](CC(C)C)NC(=O)[C@H](CCCN)NC(=O)[C@H](C(C)C)NC(=O)[C@H](Cc3ccc(-c4ccccc4)cc3)NC(=O)[C@H](C(C)C)NC2=O)c1` [Compound 2605] ({CH2CO}-[Dap]Y(Carboxymethyl)D[Phe(3-Me)]V[Bip]V[Orn][dL][Dab][Cha]V[Orn]C[Aun]-OH; thioether N-14): 5.6 nM; for `CC(C)C[C@H]1NC(=O)[C@H](CCCN)NC(=O)[C@H](C(C)C)NC(=O)[C@H](Cc2ccc(-c3ccccc3)cc2)NC(=O)[C@H](C(C)C)NC(=O)[C@H](Cc2c[nH]c3ccccc23)NC(=O)[C@H](CC(=O)O)NC(=O)[C@H](Cc2ccc(OCC(=O)O)cc2)NC(=O)[C@H](Cc2ccc(OCC(=O)O)cc2)NC(=O)CSC[C@@H](C(=O)NCCCCCCCCCCC(=O)O)NC(=O)[C@H](CCCN)NC(=O)[C@H](C(C)C)NC(=O)[C@H](CC2CCCCC2)NC(=O)[C@H](CCN)NC1=O` [Compound 2607] ({CH2CO}-Y(Carboxymethyl)Y(Carboxymethyl)DWV[Bip]V[Orn][dL][Dab][Cha]V[Orn]C[Aun]-OH; thioether N-14): 29.7 nM; for `CC(C)C[C@H]1NC(=O)[C@H](CCCN)NC(=O)[C@H](C(C)C)NC(=O)[C@H](Cc2ccc(-c3ccccc3)cc2)NC(=O)[C@H](C(C)C)NC(=O)[C@H](Cc2c[nH]c3ccccc23)NC(=O)[C@H](CC(=O)O)NC(=O)[C@H](Cc2ccc(OCC(=O)O)cc2)NC(=O)[C@H](Cc2ccc(OCC(=O)O)cc2)NC(=O)CSC[C@@H](C(=O)NCCCCCCCCCCC(=O)O)NC(=O)[C@H](CN)NC(=O)[C@H](C(C)C)NC(=O)[C@H](CC2CCCCC2)NC(=O)[C@H](CCN)NC1=O` [Compound 2608] ({CH2CO}-Y(Carboxymethyl)Y(Carboxymethyl)DWV[Bip]V[Orn][dL][Dab][Cha]V[Dap]C[Aun]-OH; thioether N-14): 31.7 nM.
With `Cc1cccc(C[C@@H]2NC(=O)[C@H](CC(=O)O)NC(=O)[C@H](Cc3ccc(OCC(=O)O)cc3)NC(=O)[C@H](CN)NC(=O)CSC[C@@H](C(=O)N[C@@H](C)C(=O)NC(CCC(=O)O)C(=O)NCCOCCOCC(=O)NCCCCCCCCCCC(=O)O)NC(=O)[C@H](CCCN)NC(=O)[C@H](C(C)C)NC(=O)[C@H](CC3CCCCC3)NC(=O)[C@H](CCN)NC(=O)[C@@H](CC(C)C)NC(=O)[C@H](CCCN)NC(=O)[C@H](CCCCC(N)=O)NC(=O)[C@H](Cc3ccc(-c4ccccc4)cc3)NC(=O)[C@H](C(C)C)NC2=O)c1` (stereo partly drawn) [Compound 2615] ({CH2CO}-[Dap]Y(Carboxymethyl)D[Phe(3-Me)]V[Bip][hhGln][Orn][dL][Dab][Cha]V[Orn]CA[ξE][AEEA][Aun]-OH; thioether N-14), the IC50 is 8.5 nM.
Turning to `Cc1cccc(C[C@@H]2NC(=O)[C@H](CC(=O)O)NC(=O)[C@H](Cc3ccc(OCC(=O)O)cc3)NC(=O)[C@H](CN)NC(=O)CSC[C@@H](C(=O)N[C@@H](C)C(=O)NC(CCC(=O)O)C(=O)NCCOCCOCC(=O)NCCCCCCCCCCC(=O)O)NC(=O)[C@H](CN)NC(=O)[C@H](C(C)C)NC(=O)[C@H](CC3CCCCC3)NC(=O)[C@H](CCN)NC(=O)[C@@H](CC(C)C)NC(=O)[C@H](CCCN)NC(=O)[C@H](CCCNC(N)=O)NC(=O)[C@H](Cc3ccc(-c4ccccc4)cc3)NC(=O)[C@H](C(C)C)NC2=O)c1` (stereo partly drawn) [Compound 2616] ({CH2CO}-[Dap]Y(Carboxymethyl)D[Phe(3-Me)]V[Bip][Cit][Orn][dL][Dab][Cha]V[Dap]CA[ξE][AEEA][Aun]-OH; thioether N-14), the 50% inhibitory concentration (IC50) was 16.1 nM.
Turning to `Cc1cccc(C[C@@H]2NC(=O)[C@H](CC(=O)O)NC(=O)[C@H](Cc3ccc(OCC(=O)O)cc3)NC(=O)[C@H](CN)NC(=O)CSC[C@@H](C(=O)N[C@@H](C)C(=O)N[C@@H](CCC(=O)O)C(=O)NCCCCCCCCCCC(=O)O)NC(=O)[C@H](CCCN)NC(=O)[C@H](C(C)C)NC(=O)[C@H](CC3CCCCC3)NC(=O)[C@H](CCN)NC(=O)[C@@H](CC(C)C)NC(=O)[C@H](CCCN)NC(=O)[C@H](CCCNC(N)=O)NC(=O)[C@H](Cc3ccc(-c4ccccc4)cc3)NC(=O)[C@H](C(C)C)NC2=O)c1` [Compound 2617] ({CH2CO}-[Dap]Y(Carboxymethyl)D[Phe(3-Me)]V[Bip][Cit][Orn][dL][Dab][Cha]V[Orn]CAE[Aun]-OH; thioether N-14), the IC50 was 6.3 nM.
With `Cc1cccc(C[C@@H]2NC(=O)[C@H](CC(=O)O)NC(=O)[C@H](Cc3ccc(OCC(=O)O)cc3)NC(=O)[C@H](CN)NC(=O)CSC[C@@H](C(=O)N[C@@H](C)C(=O)N[C@@H](CCC(=O)O)C(=O)NCCCCCCCCCCC(=O)O)NC(=O)[C@H](CN)NC(=O)[C@H](C(C)C)NC(=O)[C@H](CC3CCCCC3)NC(=O)[C@H](CCN)NC(=O)[C@@H](CC(C)C)NC(=O)[C@H](CCCN)NC(=O)[C@H](CCCNC(N)=O)NC(=O)[C@H](Cc3ccc(-c4ccccc4)cc3)NC(=O)[C@H](C(C)C)NC2=O)c1` [Compound 2618] ({CH2CO}-[Dap]Y(Carboxymethyl)D[Phe(3-Me)]V[Bip][Cit][Orn][dL][Dab][Cha]V[Dap]CAE[Aun]-OH; thioether N-14), the 50% inhibitory concentration (IC50) came out at 12.5 nM.
Under `Cc1cccc(C[C@@H]2NC(=O)[C@H](CC(=O)O)NC(=O)[C@H](Cc3ccc(OCC(=O)O)cc3)NC(=O)[C@H](CN)NC(=O)CSC[C@@H](C(=O)N[C@@H](C)CC(=O)NCCCCCCCCCCC(=O)O)NC(=O)[C@H]([C@@H](C)O)NC(=O)[C@H](C(C)C)NC(=O)[C@H](CC3CCCCC3)NC(=O)[C@H](CCN)NC(=O)[C@@H](CC(C)C)NC(=O)[C@H](CCCN)NC(=O)[C@H](CCCNC(N)=O)NC(=O)[C@H](Cc3ccc(-c4ccccc4)cc3)NC(=O)[C@H](C(C)C)NC2=O)c1` [Compound 2619] stands 24.4 nM.
